Laboratory results published in PubChem BioAssay (NCI).
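Exposure lasted 48 hours, with cells grown in 96-well plates and compounds tested at five concentrations. Definition used: TGI = concentration required for complete inhibition of growth.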

Key:
Assay in all cases: DTP human tumour cell line panel, 48 h
[1] = test system: UACC-257 melanoma
[2] = test system: SN12C renal
[3] = test system: HCT-116 colon
[4] = test system: HL-60(TB) leukemia
[5] = test system: KM12 colon
[6] = test system: DU-145 prostate
[7] = test system: M14 melanoma
[8] = test system: PC-3 prostate
[9] = test system: MDA-MB-435
[10] = test system: SR leukemia
[11] = test system: OVCAR-8 ovarian
[12] = test system: TK-10 renal
[13] = test system: A498 renal
[14] = test system: 786-0 renal
[15] = test system: HT29 colon
[16] = test system: SF-539 CNS
[17] = test system: SNB-19 CNS
[18] = test system: UO-31 renal
[19] = test system: SF-295 CNS

Compound | TGI [1] [µM] | TGI [2] [µM] | TGI [3] [µM] | TGI [4] [µM] | TGI [5] [µM] | TGI [6] [µM] | TGI [7] [µM] | TGI [8] [µM] | TGI [9] [µM] | TGI [10] [µM] | TGI [11] [µM] | TGI [12] [µM] | TGI [13] [µM] | TGI [14] [µM] | TGI [15] [µM] | TGI [16] [µM] | TGI [17] [µM] | TGI [18] [µM] | TGI [19] [µM]
CCc1c(Cc2cc(C)cc(C)c2)n2c(nc1=O)SCC2CBr (stereo not given) | > 50 | > 50 | > 50 | > 50 | > 50 | > 50 | > 50 | > 50 | > 50 | > 50 | 40.4 | > 50 | > 50 | > 50 | > 50 | > 50 | > 50 | > 50 | 
COC(=O)c1ccccc1/C=C1\Cc2cc(C)c(C)cc2C1=O | > 100 | > 100 | > 100 | > 100 | > 100 | > 100 | > 100 | > 100 | > 100 | > 100 | > 100 | 86.6 | > 100 | > 100 | > 100 | > 100 | > 100 | > 100 | > 100
Cc1ccc(/C=C/C(=O)c2cc(CN(C)C)c(O)c(CN(C)C)c2)cc1 | 27.4 | 44 | 39.7 | 38.5 | 25.2 | > 100 | 39.1 | 36.8 | 57 | 62.7 | 78.9 | > 100 | 95.5 | 73.9 | 33 | 34.9 |  | 60 | 27.7
COc1c(O)c2c(=O)cc(OC)c3c4c(OC)cc(=O)c5c(O)c(OC)c6c(c(c1C(C(C)=O)C6C(C)O)c23)c54 (stereo not given) | 1.39 | 2.94 | 3.06 | 0.415 | 1.07 | 1.74 |  | 0.971 | 3.1 | 1.93 | 0.71 | 3.65 | 28.3 | 3.81 | 0.267 | 1.87 | 0.413 | 1.03 | 2.05
OC1CN2Cc3cc4c(cc3[C@]13C=C[C@@H](O)CC23)OCO4 (stereo not given in full) | 34.9 | > 100 | > 100 | 75.3 | > 100 | 71.9 | > 100 | > 100 | > 100 | > 100 | > 100 | 93.3 | > 100 | > 100 | > 100 | > 100 | > 100 | > 100 | > 100
Cc1cn(C2CC(N)C(C(=O)O)O2)c(=O)[nH]c1=O (stereo not given) | > 100 | > 100 | > 100 | > 100 | > 100 | > 100 | > 100 | > 100 | > 100 | > 100 | > 100 | > 100 | > 100 | > 100 | > 100 | > 100 | > 100 | > 100 | 
C=CC(C)CCC(C/C=C(\C)CCC=C(C)C)C(=C)CCCC(C)C (stereo not given) | > 100 | > 100 | > 100 | > 100 | > 100 | > 100 | > 100 | > 100 | > 100 | > 100 | > 100 | > 100 | > 100 | > 100 | > 100 | > 100 | > 100 | > 100 | > 100
C=CCOC(=O)[C@@H]1C[C@@H](OC(C)(C)C)CN1C(=O)[C@@H]1[C@H]2OC(C)(C)O[C@H]2CN1C(=O)OCC1c2ccccc2-c2ccccc21 | 35.4 | 32.2 | 31.8 | 29.1 | 11 | 8.12 | 36 | 30.8 | 34.7 | 31.7 | 15.3 | 32.5 | 30.5 | 9.97 | 33.1 | 28.9 | 33 | 0.614 | 34.4
O=C(NC(Nc1ccc(F)c(Cl)c1)(C(F)(F)F)C(F)(F)F)OCc1ccccc1 | > 100 | > 100 | > 100 | 40.3 | > 100 | > 100 | > 100 | > 100 | > 100 | 32.7 | > 100 | > 100 | > 100 | 39.5 | > 100 | 42.6 | 51 | 54.1 | 91.7
Cc1cc(NS(=O)(=O)c2ccc(Nc3c4ccccc4nc4ccc(C(=O)Nc5ccc(S(N)(=O)=O)cc5)cc34)cc2)no1 | > 100 | > 100 | > 100 | > 100 | > 100 | > 100 | > 100 | > 100 | > 100 | > 100 | > 100 | > 100 | > 100 | > 100 | > 100 | > 100 | > 100 | > 100 | > 100
O=C(c1ccccc1)c1sc2c(=O)c(C(=O)c3ccccc3)c(C(=O)c3ccccc3)sc2c(=O)c1C(=O)c1ccccc1 | > 100 | > 100 | > 100 | 48.4 | > 100 | > 100 | > 100 | > 100 | 70.9 | > 100 | > 100 | > 100 | > 100 | > 100 | > 100 | 51.1 | > 100 | 22.6 | > 100
S=c1sc2nc(Cl)nc(Cl)c2s1 | 31.9 | 32.4 | 26 | 8.78 | 20.8 | 30.9 | 16.9 | 27.9 | 22.4 | 21.2 | 29.8 | 26.5 | 32 | 12.9 | 23.5 | 41.6 | 34.8 | 25.1 | 31.7
O=C(Nc1ccccc1F)c1cc2ccc(O)cc2oc1=Nc1cccc(C(F)(F)F)c1 | > 100 |  | 18.1 | 4.84 | 26.8 | > 100 | 26 | > 100 | 22.7 | 17.7 | 5.27 |  | 38.3 | 17.8 | > 100 | 22.3 | > 100 | 15.5 | > 100
C=CC[C@@]1(C)CCCCCCCCC[C@@](C)(CC=C)C1=O | 58.6 | 76.8 | > 100 | 46.1 | 94.5 | > 100 | > 100 | > 100 | > 100 | 63.7 | 57.9 | > 100 | 36.4 | > 100 | 38.2 | > 100 | 45 | > 100 | 37.4
CCOC(=O)c1cnc(-n2[nH]c3c(c2=O)CCCC3)[nH]c1=O | > 100 | > 100 | > 100 | > 100 | > 100 | > 100 | > 100 | > 100 | > 100 | > 100 | > 100 | > 100 | > 100 | > 100 | > 100 | > 100 | > 100 | > 100 | > 100
CC(=O)OC1CC[C@]2(C)C3CC[C@@]4(C)C(CCC4[C@H](C)CCCC(C)C)[C@@H]3CCC2(Br)C1 (stereo not given in full) | > 50 | > 50 | 16.5 | 28.3 | > 50 | > 50 | > 50 | 37.7 | 19.4 | 24.8 | 26.5 | 26.5 | 18 | 17.5 | > 50 | 18.5 | > 50 | 24.6 | > 50
CN(CCCNC(=O)c1nn(-c2ccc(Cl)cc2Cl)c2c1ccc1ccccc12)CCCNC(=O)c1nn(-c2ccc(Cl)cc2Cl)c2c1ccc1ccccc12 | 3.26 | 3.14 | 3.07 | 2.1 | 3.26 | 3.18 | 3.04 | 3.08 | 3.23 | 1.58 |  | 3.41 | 2.77 | 2.95 | 3.04 | 3.47 | 2.89 |  | 3.06
N#CCCN(CCN(C(=O)Nc1ccccc1)c1ccccc1)C(=O)Nc1ccccc1 | > 100 | > 100 | > 100 | 34.7 | > 100 | > 100 | > 100 | > 100 | > 100 | > 100 | > 100 | > 100 | > 100 | > 100 | > 100 | > 100 | > 100 | > 100 | > 100
C=C(Cl)C(=C)CCC(Cl)C(C)C (stereo not given) | > 100 | > 100 | > 100 | > 100 | > 100 | > 100 | > 100 | > 100 | > 100 | > 100 |  | > 100 | > 100 | > 100 | > 100 | > 100 | > 100 | > 100 | > 100
NC(=Nc1ccc(O)cc1)S(=O)O | > 100 | > 100 | > 100 | > 100 | > 100 | > 100 | > 100 | > 100 | > 100 | > 100 | > 100 | > 100 | > 100 | > 100 | > 100 | > 100 | > 100 | > 100 | > 100
COc1cc2cc(C(=O)N3CC(CCl)c4ccccc43)[nH]c2c(OC)c1OC (stereo not given) | > 100 | 55.2 | > 100 | > 100 | > 100 | > 100 | > 100 | > 100 | > 100 | > 100 | > 100 | > 100 | > 100 | > 100 | > 57.9 | > 100 | > 100 | > 100 | > 100
O=C(/C=C/c1ccc(O)c(O)c1O)OCCc1ccccc1 | > 100 | 34.4 | 26.3 | 48.8 | 46.4 | > 100 | 37.9 | > 100 | 36.2 | 40.6 |  | > 100 | > 100 | 35.5 | 53.4 | 70.7 | > 100 | 78.1 | 35.5
NC(N)=NCCCC(NC(=O)OCCCCCCn1ccc(N)nc1=O)C(=O)O (stereo not given) | > 100 | > 100 | > 100 | > 100 | > 100 | > 100 | > 100 | > 100 | > 100 | > 100 |  | > 100 | > 100 | > 100 | > 100 | > 100 | > 100 | > 100 | > 100
C=CCNC1=C2C[C@@H](C)C[C@@H](OC)[C@H](OC(=O)CN)[C@H](C)/C=C(\C)[C@@H](OC(N)=O)[C@H](OC)/C=C\C=C(/C)C(=O)NC(=CC1=O)C2=O | 15.7 | 17.1 | 14.4 | 8.53 | 9.87 | > 40.9 | 22.3 | 11.9 | 14.3 | > 40 | 18.3 | 14.2 | 28.4 | 20.7 | 17.6 | 15.9 | 25.5 | 19.7 | 12.6
